The values below are quoted from earlier work in patent US8591958B2, “Concentrated hydrogen peroxide disinfecting solutions” (priority 2008, dated 2013).

In this data set the test system is Staphylococcus aureus.

Molecules are shown by their SMILES. Read-outs that look alike come from different tables or passages of the source.

For `OO` [hydrogen peroxide], the “time required to disinfect surfaces contaminated with Staphylococcus aureus” value is given as “about 60 minutes” (0.1% w/w aqueous solution) and “about 20 seconds” (25.8% w/w aqueous solution, same test conditions).
